pIC50: −log10 of the molar value. Structures can show the parent of a compound that is named as a salt.

T1 sequence (P46531 1754-2555 limits assumed): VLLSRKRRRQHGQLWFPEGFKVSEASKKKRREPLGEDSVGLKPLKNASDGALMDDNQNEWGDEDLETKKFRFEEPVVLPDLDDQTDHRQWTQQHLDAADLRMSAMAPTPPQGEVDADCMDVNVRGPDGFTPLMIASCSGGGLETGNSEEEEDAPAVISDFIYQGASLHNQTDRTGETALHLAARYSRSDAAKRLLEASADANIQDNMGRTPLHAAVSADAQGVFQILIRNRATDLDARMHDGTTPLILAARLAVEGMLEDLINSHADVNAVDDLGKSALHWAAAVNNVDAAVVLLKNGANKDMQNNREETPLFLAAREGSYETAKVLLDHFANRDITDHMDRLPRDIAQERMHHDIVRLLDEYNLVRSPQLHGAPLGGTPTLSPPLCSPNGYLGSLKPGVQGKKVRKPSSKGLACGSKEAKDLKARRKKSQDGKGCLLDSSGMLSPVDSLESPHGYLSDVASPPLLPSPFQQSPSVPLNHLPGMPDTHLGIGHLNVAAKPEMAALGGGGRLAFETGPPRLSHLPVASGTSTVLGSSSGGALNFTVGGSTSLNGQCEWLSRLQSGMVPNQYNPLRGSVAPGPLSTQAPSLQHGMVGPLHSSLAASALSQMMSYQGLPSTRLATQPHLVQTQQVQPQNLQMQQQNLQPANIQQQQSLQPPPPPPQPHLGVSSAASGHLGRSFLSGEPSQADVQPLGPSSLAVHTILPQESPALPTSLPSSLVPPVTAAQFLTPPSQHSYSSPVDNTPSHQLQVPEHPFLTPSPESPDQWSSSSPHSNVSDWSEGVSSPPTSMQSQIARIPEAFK

The first test concerns the target T1, hNotch1ICD (Homo sapiens, UniProt P46531).
T1 construct: pLV[Tet]-Puro-TRE3G>Notch1-ICD; expressed in transfected cells; host or cells: 293A cells
In words: Notch1 Reporter Assay (Dox-inducible Notch1-ICD, CSL-responsive luciferase in 293A cells). The format is cell-based. As to conditions: 293A cells, 24 h, luciferase normalized to cell viability; read-out: Notch1 Reporter Assay IC50. As to the method:
293A cells expressing 1) pCMV-Tet-On 3G, 2) pLV[Tet]-Puro-TRE3G>Notch1-ICD, 3) pLV[Tet]-Puro-TRE3G>Notch2-ICD, 4) pLV[Tet]-Puro-TRE3G>Notch3-ICD, and 5) pCSL-RElement-Luc were used. When Doxycycline is added, the Tet-ON gene activates expression of hNotch1ICD, which together with endogenous NTC components binds to CSL responsive elements (pCSL-RElement-Luc) and expresses luciferase. 1 ×× 10^4 cells are plated in 100 µL (96-well format). 24 h later, compounds (10 mM stock in DMSO) are diluted in DMSO to 200X, then added (5 ul into 1 mL) to cell culture media containing 50 ng/mL Dox. This is then added 1:1 to cells. Final DMSO = 0.25%, Dox = 25 ng/mL. After 24 h, media is discarded, and cells are lysed in passive lysis buffer (Promega). Cells are rocked at room temperature for 15 min and then lysate is divided for luciferase assay (Luciferase Assay System, Promega) and cell viability (CellTiter Glo 2.0, Promega). Raw luciferase is normalized to cell viability, and then scaled to DMSO wells. Results are analyzed and IC50′s are determined in GraphPad by nonlinear regression curve fitting (4 parameter) of dose response curves.
Background: A reporter such as luciferase makes a cellular process visible.
On to `CC(C)Cn1c(=O)c(C(=O)Nc2ccc(F)cc2N2CCN(C)CC2)c(O)c2ccccc21` [570(01)], for which the pIC50 (as a rule, the IC50 on a negative log10 scale, so that one unit is a factor of ten) is 5.19. As for `Cc1cccnc1NC(=O)c1c(O)c2ccccc2n(CC(C)C)c1=O` [compound 513, 4-hydroxy-1-isobutyl-N-(3-methylpyridin-2-yl)-2-oxo-1,2-dihydroquinoline-3-carboxamide], the pIC50 is 4.95. For `O=C(Nc1ccccc1)c1c(O)c2c(n(Cc3ccco3)c1=O)CCCC2` [SSTN-379], the pIC50 was 4.56. Turning to `CC(C)Cn1c(=O)c(C(=O)NCc2ccco2)c(O)c2ccccc21` [compound 541, N-(furan-2-ylmethyl)-4-hydroxy-1-isobutyl-2-oxo-1,2-dihydroquinoline-3-carboxamide], the negative-log IC50 (pIC50) was 4.82. On to `CC(C)Cn1c(=O)c(C(=O)Nc2ccccn2)c(O)c2ccccc21` [compound 518, 4-hydroxy-1-isobutyl-2-oxo-N-(pyridin-2-yl)-1,2-dihydroquinoline-3-carboxamide], for which the pIC50 was 4.73.

`CC(C)Cn1c(=O)c(C(=O)Nc2cc(Cl)ccn2)c(O)c2ccccc21` [compound 526, N-(4-chloropyridin-2-yl)-4-hydroxy-1-isobutyl-2-oxo-1,2-dihydroquinoline-3-carboxamide]: the negative-log IC50 (pIC50) is 4.69.

In the case of `CC(C)Cn1c(=O)c(C(=O)Nc2cccc(N3CCOCC3)c2)c(O)c2ccccc21` [compound 554, 4-hydroxy-1-isobutyl-N-(3-morpholinophenyl)-2-oxo-1,2-dihydroquinoline-3-carboxamide], the negative logarithm of the IC50 (pIC50) was 5.37. With `O=C(Nc1ccc(F)cc1)c1c(O)c2cccnc2n(-c2ccccc2)c1=O` [SSTN-443], the pIC50 was 5.05. In the case of `Cc1ccnc(NC(=O)c2c(O)c3ccccc3n(Cc3ccccc3)c2=O)c1` [SSTN-410], the pIC50 was 4.66.

For `CC(C)Cn1c(=O)c(C(=O)Nc2cccc(F)c2)c(O)c2c(N3CCN(C)CC3)cccc21` [588(01)], the pIC50 is 4.99. On to `Cc1ccccc1NC(=O)c1c(O)c2ccccc2n(CC(C)C)c1=O` [compound 535, 4-hydroxy-1-isobutyl-2-oxo-N-(o-tolyl)-1,2-dihydroquinoline-3-carboxamide], for which the pIC50 was 5.23. On the same count and under the same terms, the figure for `CC(C)Cn1c(=O)c(C(=O)Nc2cccc(F)c2)c(O)c2cc(N3CCN(C)CC3)ccc21` [577(01)] is 5.01; for `Cc1ncccc1NC(=O)c1c(O)c2ccccc2n(CC(C)C)c1=O` [compound 540, 4-hydroxy-1-isobutyl-N-(2-methylpyridin-3-yl)-2-oxo-1,2-dihydroquinoline-3-carboxamide] it is 4.73; for `COc1ccnc(NC(=O)c2c(O)c3ccccc3n(CC(C)C)c2=O)c1` [compound 532, 4-hydroxy-1-isobutyl-N-(4-methoxypyridin-2-yl)-2-oxo-1,2-dihydroquinoline-3-carboxamide] it is 4.91. Same read-out and setting: the figure for `Cc1cccnc1NC(=O)c1c(O)c2ccc(N3CCN(C)CC3)cc2n(CC(C)C)c1=O` [580(01)] is 4.88; for `Cc1cccnc1NC(=O)c1c(O)c2cc(N3CCN(C)CC3)ccc2n(CC(C)C)c1=O` [579(01)] it is 4.74; for `CCCn1c2c(c(O)c(C(=O)Nc3ccccn3)c1=O)CCCC2` [SSTN-401] it is 4.67.

Take `CC(C)Cn1c(=O)c(C(=O)Nc2cccc(F)c2N2CCN(C)CC2)c(O)c2ccccc21` [581(01)]: the pIC50 is 5.11. On the same count and under the same terms, the figure for `Cc1cccnc1NC(=O)c1c(O)c2c(Br)cccc2n(CC(C)C)c1=O` [compound 563, 5-bromo-4-hydroxy-1-isobutyl-N-(3-methylpyridin-2-yl)-2-oxo-1,2-dihydroquinoline-3-carboxamide] is 5.10; for `CC(C)Cn1c(=O)c(C(=O)Nc2cc(N3CCOCC3)ccn2)c(O)c2ccccc21` [compound 527, 4-hydroxy-1-isobutyl-N-(4-morpholinopyridin-2-yl)-2-oxo-1,2-dihydroquinoline-3-carboxamide] it is 5.07; for `CC(C)Cn1c(=O)c(C(=O)Nc2ccn(C)n2)c(O)c2ccccc21` [compound 533, 4-hydroxy-1-isobutyl-N-(1-methyl-1H-pyrazol-3-yl)-2-oxo-1,2-dihydroquinoline-3-carboxamide] it is 4.65.

Still in this test, the particulars now being: value printed in the synthesis heading of the compound; read-out: Notch1 Reporter Assay IC50.
Take `CC(C)Cn1c(=O)c(C(=O)Nc2ccc(N3CCN(C)CC3)c(F)c2)c(O)c2ccccc21` [SSTN-572_HCl salt, N-(3-fluoro-4-(4-methylpiperazin-1-yl)phenyl)-4-hydroxy-1-isobutyl-2-oxo-1,2-dihydroquinoline-3-carboxamide hydrochloride salt]: the pIC50 was 5.47.

Take `CC(C)Cn1c(=O)c(C(=O)Nc2cccc(F)c2)c(O)c2cc(N3CCN(C)CC3)ccc21` [SSTN-577_HCl salt, N-(3-fluorophenyl)-4-hydroxy-1-isobutyl-6-(4-methylpiperazin-1-yl)-2-oxo-1,2-dihydroquinoline-3-carboxamide hydrochloride salt]: the pIC50 is 5.19. `CC(C)Cn1c(=O)c(C(=O)Nc2cc(F)ccc2N2CCN(C)CC2)c(O)c2ccccc21` [SSTN-571_HCl salt, N-(5-fluoro-2-(4-methylpiperazin-1-yl)phenyl)-4-hydroxy-1-isobutyl-2-oxo-1,2-dihydroquinoline-3-carboxamide hydrochloride salt]: the pIC50 is 5.10. With `CC(C)Cn1c(=O)c(C(=O)Nc2cccc(F)c2N2CCN(C)CC2)c(O)c2ccccc21` [SSTN-581_HCl salt, N-(3-fluoro-2-(4-methylpiperazin-1-yl)phenyl)-4-hydroxy-1-isobutyl-2-oxo-1,2-dihydroquinoline-3-carboxamide hydrochloride salt], the pIC50 was 5.11. Still for that read-out and setting: the figure for `CC(C)Cn1c(=O)c(C(=O)Nc2ccc(N3CCN(C)CC3)c(F)c2)c(O)c2ccccc21` [SSTN-572, N-(3-fluoro-4-(4-methylpiperazin-1-yl)phenyl)-4-hydroxy-1-isobutyl-2-oxo-1,2-dihydroquinoline-3-carboxamide] is 4.75. On the same count and under the same terms, as for `CC(C)Cn1c(=O)c(C(=O)Nc2cccc(F)c2)c(O)c2c(N3CCN(C)CC3)cccc21` [SSTN-588_HCl salt, N-(3-fluorophenyl)-4-hydroxy-1-isobutyl-5-(4-methylpiperazin-1-yl)-2-oxo-1,2-dihydroquinoline-3-carboxamide hydrochloride salt], the figure is 5.01. Take `CC(C)Cn1c(=O)c(C(=O)Nc2cc(F)cc(N3CCN(C)CC3)c2)c(O)c2ccccc21` [SSTN-583_HCl salt, N-(3-fluoro-5-(4-methylpiperazin-1-yl)phenyl)-4-hydroxy-1-isobutyl-2-oxo-1,2-dihydroquinoline-3-carboxamide hydrochloride salt]: the pIC50 is 5.20. Regarding `CC(C)Cn1c(=O)c(C(=O)Nc2cccc(F)c2)c(O)c2cc(N3CCN(C)CC3)ccc21` [SSTN-577, N-(3-fluorophenyl)-4-hydroxy-1-isobutyl-6-(4-methylpiperazin-1-yl)-2-oxo-1,2-dihydroquinoline-3-carboxamide], the pIC50 was 5.01. The same measure, in the same setting: as for `CC(C)Cn1c(=O)c(C(=O)Nc2cccc(F)c2)c(O)c2c(N3CCN(C)CC3)cccc21` [SSTN-588, N-(3-fluorophenyl)-4-hydroxy-1-isobutyl-5-(4-methylpiperazin-1-yl)-2-oxo-1,2-dihydroquinoline-3-carboxamide], the figure is 4.99.

Source of the values: patent US20230203003A1, “Notch Inhibitors and Uses Thereof” (StemSynergy Therapeutics, Inc., priority 2020, published 2023).
